{"source": "patent US20250352445A1", "about": "“COMPOSITIONS FOR SEBUM CONTROL” (Dyson Operations Pte. Ltd., priority 2022, published 2025)", "system": "Primary sebocytes", "test": "Lipid reduction in primary sebocytes, AdipoRed dye, mean fluorescence intensity by flow cytometry", "format": "cell-based, human", "details": "primary sebocytes incubated 3 days, 10 μM for the compound, 31.25 μg/mL for the extract, average of 10,000 cells", "experimental": "Primary sebocytes were derived from the forehead of a person. The same cell line was used in all experiments. Flow cytometry experiments were conducted on the BD LSR Fortessa X-20 as follows: Sebocytes stained with a lipid dye (AdipoRed™) were first analyzed according to size and granularity with only single cells selected for AdipoRed™ signal intensity measurement. […] Cells treated with compositions of the invention were compared to vehicle-treated cells to determine the percentage of lipid reduction. […] The cells were washed with PBS buffer [5 mL for a 10 cm culture plate] and then incubated at 37° C. with 0.125% Trypsin-EDTA (Gibco, 15400054) [2 mL of Trypsin for a 10 cm culture plate] for 5-10 minutes. […] When all cells had detached, fixative solution (250 μL; […] The tubes were stored on ice before flow cytometry. Mean fluorescence intensity of the lipid signal can be obtained from the flow cytometer plot which are used to determine the inhibitory effect of the compounds on the sebocytes. The lipid reduction effects of the compositions of the invention were measured against DMSO as a negative control, and against the known lipid-reducing compounds epigallocatechin gallate (EGCG) and salicylic acid (SA) as positive controls. The results are shown in Table 3 and FIGS. 1 to 7.", "data": [{"compound": "O=C(O[C@@H]1Cc2c(O)cc(O)cc2O[C@@H]1c1cc(O)c(O)c(O)c1)c1cc(O)c(O)c(O)c1", "note": "[EGCG, epigallocatechin gallate]", "values": [{"measurement": "Percentage Reduction in Mean Fluorescence Intensity (Against DMSO Control)", "result": 13.4, "unit": "%"}]}]}
